Reference: patent US20230087609A1, “USE OF A SOLUBLE GUANYLATE CYCLASE (sGC) STIMULATOR OR OF A COMBINATION OF A sGC STIMULATOR AND AN sGC ACTIVATOR FOR CONDITIONS WHEREIN THE HEME GROUP OF sGC IS OXIDIZED OR WHEREIN sGC IS DEFICIENT IN HEME” (Universiteit Maastricht, priority 2020, published 2023)

System: C57B16/J mice, transient occlusion of the middle cerebral artery (tMCAO)
Assay: tMCAO ischemia model, infarct size
Assay type: in vivo, mouse
Settings: 0.1 mg/kg i.p. 1 h after reperfusion; 1 h tMCAO, 24 h reperfusion; versus non-treated animals (FIG. 10)
Protocol: C57B16/J mice were anesthetized with isoflurane (0.6% in oxygen). The animal was placed on a heating-pad, and rectal temperature was maintained at 37.0° C. Transient cerebral ischemia was induced using an intraluminal filament technique. Using a surgical microscope (Tecnoscopio OPMI pico, Carl Zeiss, Meditec Iberia SA, Spain), a midline neck incision was made and the right common and external carotid arteries were isolated and permanently ligated. A microvascular temporarily ligature was placed on the internal carotid artery to temporarily stop the blood flow. A silicon rubber-coated monofilament (6023910PK10, Doccol, USA) was inserted through a small incision into the common carotid artery and advanced into the internal carotid artery until a resistance is felt. […]
After sacrificing the mice, brains were quickly removed and cut in four 2-mm thick coronal sections using a mouse brain slice matrix (Harvard Apparatus, USA). […] Indirect infarct volumes were calculated by volumetry (ImageJ software, National Institutes of Health, USA) according to the following equation: Vindirect (mm^3)=Vinfarct×(1−(Vih−Vch)/Vch), where the term (Vih−Vch) represents the volume difference between the ischemic hemisphere and the control hemisphere and (Vih−Vch)/Vch expresses this difference as a percentage of the control hemisphere.

Compound: COC(=O)N(C)c1c(N)nc(-c2nn(Cc3ccccc3F)c3ncccc23)nc1N [BAY 63-2521, riociguat]
- infarct size / infarct volume: reduces infarct size
